Patent US20240366728A1, “Treatment of Diabetes Mellitus” (Carmot Therapeutics Inc., priority 2023, published 2024)
Marks after values point to notes of the source that are not given here.

Assays:
[1] = system: participants with obesity and participants with T2DM; test: CT-868-003 crossover study: safety; assay type: in vivo, human; conditions: for Infections and infestations / Urinary tract infection: Table 24
Source text: Safety assessments of this study included treatment-emergent adverse events (TEAEs), serious adverse events (SAEs), adverse events of special interest (AESI), vital signs, 12-lead electrocardiogram (ECG), clinical lab evaluations, and physical exam.
Safety assessments which occurred throughout the entire study, included monitoring of incidence and severity of AEs, treatment-emergent AEs (TEAEs) and AEs of special interest (AESIs) (e.g., GI events, hypoglycemia), clinical laboratory abnormalities (ECGs, chemistry, hematology, and urinalysis), and changes in vital sign measurements (BP, heart rate, respiratory rate, and aural temperature).
AE terms recorded by the Investigator were coded to system organ class (SOC) and preferred term (PT) using the Medical Dictionary for Regulatory Activities (MedDRA) version 24.0. Severity was collected using the Common Terminology Criteria for AEs (CTCAE) version 5.0 Toxicity Grade. Events with missing severity were summarized as Grade 3. TEAEs summarized by severity counted each participant once for the maximum severity within each SOC and PT within each in-house treatment period and overall. TEAEs marked with a relationship to study treatment as definitely, probable, possible, or missing were considered as related TEAEs. Events with missing relationship to study treatment were summarized as related. The number and percentage of participants with TEAEs were summarized by MedDRA-coded SOCs and PTs.

human GLP-1R = human GLP-1R (Homo sapiens, UniProt P43220); test: cAMP accumulation, SNAP-human GLP-1R CHO-K1 cells
Chain of human GLP-1R (P43220 24-463): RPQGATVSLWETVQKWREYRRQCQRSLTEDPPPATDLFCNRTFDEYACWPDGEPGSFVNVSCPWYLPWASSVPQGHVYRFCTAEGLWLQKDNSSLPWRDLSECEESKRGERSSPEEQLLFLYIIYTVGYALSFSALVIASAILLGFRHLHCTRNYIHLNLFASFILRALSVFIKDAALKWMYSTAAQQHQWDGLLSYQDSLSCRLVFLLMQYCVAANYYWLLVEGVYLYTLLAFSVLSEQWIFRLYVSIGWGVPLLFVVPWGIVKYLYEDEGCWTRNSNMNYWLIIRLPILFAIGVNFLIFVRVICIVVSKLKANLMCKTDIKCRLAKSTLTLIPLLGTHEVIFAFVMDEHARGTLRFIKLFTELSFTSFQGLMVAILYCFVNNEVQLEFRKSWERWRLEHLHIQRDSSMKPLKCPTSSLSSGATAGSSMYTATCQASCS

human GIPR = molecular target: T1, human GIPR (Homo sapiens, UniProt P48546); test: β-arrestin-2 recruitment (NanoBiT), human GIPR; assay type: cell-based; conditions: Table 17
T1 sequence (P48546 22-466): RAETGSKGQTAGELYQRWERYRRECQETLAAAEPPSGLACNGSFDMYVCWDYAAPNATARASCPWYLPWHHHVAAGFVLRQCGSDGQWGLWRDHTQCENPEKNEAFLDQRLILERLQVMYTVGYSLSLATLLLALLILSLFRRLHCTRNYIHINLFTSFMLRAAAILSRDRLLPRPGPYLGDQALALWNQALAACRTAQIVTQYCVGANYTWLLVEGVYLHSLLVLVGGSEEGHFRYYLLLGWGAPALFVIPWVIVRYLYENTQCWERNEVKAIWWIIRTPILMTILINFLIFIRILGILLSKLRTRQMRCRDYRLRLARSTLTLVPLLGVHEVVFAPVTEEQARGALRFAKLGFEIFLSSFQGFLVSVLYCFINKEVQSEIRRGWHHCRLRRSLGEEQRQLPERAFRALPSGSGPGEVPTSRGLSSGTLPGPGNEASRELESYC
Experimental: To measure GLP-1R and GIPR-mediated β-arrestin recruitment, we utilized Promega's NanoBiT® technology or NanoLuc® Binary Technology. The NanoLuc luciferase is split into two subunits, called LgBiT and SmBIT, which are expressed in HEK293 cells as fusion proteins at the C-terminus of GLP-IR or GIPR and the N-terminus of β-arrestin-2. […] The next day, the media was removed and replaced with […] 1:100 dilution of Nano-Glo® Live Cell Substrate in Opti-MEM™ and equilibrated to room temperature for ten minutes. Background luminescence was measured before 10 nL compound was added using an ECHO Acoustic Liquid Handler.
To measure GLP-1R and GIPR-mediated β-arrestin recruitment, Promega's NanoBiT® technology or NanoLuc® Binary Technology were utilized. Both allow for the detection and quantification of protein: protein interactions in live cells (Samms et al., Trends Endocrinol Metab 31:410-21). The NanoLuc luciferase is split into two subunits, called LgBiT and SmBIT, which are expressed in HEK293 cells as fusion proteins at the C-terminus of GLP-1R or GIPR and the N-terminus of β-arrestin-2, respectively. […] Background luminescence was measured before 10 nL compound was added using an ECHO Acoustic Liquid Handler. Luminescence was measured at 1.5-minute intervals for 30 minutes.

[2] = in vivo
toxicology studies = conditions: highest dose tested
[3] = system: GLP-1R+/+ and GLP-1R-/- mice; test: intraperitoneal glucose tolerance test in GLP-1R+/+ and GLP-1R-/- mice
C57BL/6J-DIO mice = test: intraperitoneal glucose tolerance test in DIO mice; assay type: in vivo, mouse; conditions: DIO mice; 20 nmol/kg
[4] = Part 1 (participants with obesity)
[5] = Part 2 (participants with T2DM)

Experimental for 1 mg/kg SC mouse: First reader's note: The heading '1 mg/kg SC mouse' is printed over the plot above the table and gives dose, route and species for the pharmacokinetic parameters.

SMILES: CCCCCCCCCCCCCCCC(=O)N[C@@H](CCC(=O)NCCCC[C@H](NC(=O)[C@H](CO)NC(=O)[C@@H]1CCCN1C(=O)[C@@H]1CCCN1C(=O)[C@@H]1CCCN1C(=O)[C@H](C)NC(=O)CNC(=O)[C@H](CO)NC(=O)[C@H](CO)NC(=O)[C@@H]1CCCN1C(=O)CNC(=O)CNC(=O)[C@H](C)NC(=O)[C@H](CC(C)C)NC(=O)[C@H](CC(C)C)NC(=O)[C@H](Cc1c[nH]c2ccccc12)NC(=O)[C@H](CC(N)=O)NC(=O)[C@@H](NC(=O)[C@H](Cc1ccccc1)NC(=O)[C@H](CCC(=O)O)NC(=O)C(C)(C)NC(=O)[C@H](C)NC(=O)[C@H](C)NC(=O)[C@H](CCC(N)=O)NC(=O)[C@H](CCCCN)NC(=O)[C@H](CC(=O)O)NC(=O)[C@H](CC(C)C)NC(=O)[C@H](Cc1ccc(O)cc1)NC(=O)[C@@H](NC(=O)[C@H](CO)NC(=O)[C@H](Cc1ccc(O)cc1)NC(=O)[C@H](CC(=O)O)NC(=O)[C@H](CO)NC(=O)[C@@H](NC(=O)[C@H](Cc1ccccc1)NC(=O)[C@@H](NC(=O)CNC(=O)[C@H](CCC(=O)O)NC(=O)CSCC(=O)NCCN1CCCCC1=O)[C@@H](C)O)[C@@H](C)O)[C@@H](C)CC)C(C)C)C(N)=O)C(=O)O [CT-868]
- Infections and infestations [1, 4]: 0 n (%)
- Urinary tract infection [1, 4]: 0 n (%)
- Infections and infestations [1, 5]: 0 n (%)
- Urinary tract infection [1, 5]: 0 n (%)
- AEs of Special Interest (AESI) Total ([1]; in vivo): 10 (50.0) n (%)
- Any AESIs, Grade 2 ([1]; in vivo): 1 (8.3%) n (%)
- Arthralgia ([1]; in vivo): 0 n (%)
- At Least 1 Study Drug Related TEAE ([1]; in vivo): 9 (45.0) n (%)
- At Least 1 TEAE ([1]; in vivo): 14 (70.0) n (%)
- Back pain ([1]; in vivo): 0 n (%)
- Coagulation test abnormal ([1]; in vivo): 0 n (%)
- Dermatitis ([1]; in vivo): 0 n (%)
- GI side effects (in words) ([1]; in vivo): mostly mild and transient
- Hypoglycemia ([1]; in vivo): 7 (35.0) n (%)
- Injection Site Reaction ([1]; in vivo): 1 (5.0) n (%)
- Investigations ([1]; in vivo): 0 n (%)
- Musculoskeletal and connective tissue disorders ([1]; in vivo): 0 n (%)
- SAEs ([1]; in vivo): 0 n (%)
- Treatment Discontinuation ([1]; in vivo): 1 (5.0)* n (%)
- participants with Grade 1 hypoglycemia events ([1]; in vivo): 7 participants
- tolerability (in words) ([1]; in vivo): well tolerated
- vital signs, ECG parameters, laboratory values (in words) ([1]; in vivo): no clinically significant CT-868-related changes
- Emax (human GLP-1R; CHO-K1, read-out: hGLP-1R cAMP (-alb) % Emax): 92%
- EC50 (human GLP-1R; potency activating cAMP at human GLP-1R, value of b126): ~0.17 nM
- EC50 (human GIPR; read-out: hGIPR β-arrestin-2 EC50): 13 nM
- Emax (human GIPR; read-out: hGIPR β-arrestin-2 % Emax): 1%
- highest tested dose exceeds pharmacologically active dose by [2]: 100 fold
- vomiting (in words) [2]: no instances of vomiting
- tolerability in toxicology studies (in words) (toxicology studies): well-tolerated at the highest dose tested

SMILES: CCCCCCCCCCCCCCCC(=O)N[C@@H](CCC(=O)NCCCC[C@H](NC(=O)[C@H](CO)NC(=O)[C@@H]1CCCN1C(=O)[C@@H]1CCCN1C(=O)[C@@H]1CCCN1C(=O)[C@H](C)NC(=O)CNC(=O)[C@H](CO)NC(=O)[C@H](CO)NC(=O)[C@@H]1CCCN1C(=O)CNC(=O)CNC(=O)[C@H](C)NC(=O)[C@H](CC(C)C)NC(=O)[C@H](CC(C)C)NC(=O)[C@H](Cc1c[nH]c2ccccc12)NC(=O)[C@H](CC(N)=O)NC(=O)[C@@H](NC(=O)[C@H](Cc1ccccc1)NC(=O)[C@H](CCC(=O)O)NC(=O)C(C)(C)NC(=O)[C@H](C)NC(=O)[C@H](C)NC(=O)[C@H](CCC(N)=O)NC(=O)[C@H](CCCCN)NC(=O)[C@H](CC(=O)O)NC(=O)[C@H](CC(C)C)NC(=O)[C@H](Cc1ccc(O)cc1)NC(=O)[C@@H](NC(=O)[C@H](CO)NC(=O)[C@H](Cc1ccc(O)cc1)NC(=O)[C@H](CC(=O)O)NC(=O)[C@H](CO)NC(=O)[C@@H](NC(=O)[C@H](Cc1ccccc1)NC(=O)[C@@H](NC(=O)CNC(=O)[C@H](CCC(=O)O)NC(=O)CSCC(=O)NCCN1C(=O)CSC1=O)[C@@H](C)O)[C@@H](C)O)[C@@H](C)CC)C(C)C)C(N)=O)C(=O)O [CT-859]
- GLUC AUC during IPGTT (in words) ([3]; GLP-1R knockout mice, 20 nmol/kg): no effect on GLUC AUC
- glucose levels lowered ([3]; GLP-1R+/+ mice, 200 nmol/kg): 75%
- glucose lowering (in words) ([3]; GLP-1R+/+ mice, 20 and 200 nmol/kg): lowered the post-prandial glucose levels equally and significantly compared to vehicle
- glucose lowering (in words) ([3]; GLP-1R-/- mice, 20 nmol/kg): ineffective at lowering glucose levels
- glucose levels lowered compared to vehicle ([3]; GLP-1R-/- mice, 200 nmol/kg): 46%
- glucose AUC 4 hours after administration (in words) (C57BL/6J-DIO mice): more efficacious than liraglutide in DIO mice
- AUClast (1 mg/kg SC mouse): 3.579 µM·h
- Tmax (1 mg/kg SC mouse): 4.0 h
